Assay [1] addresses T1, CCR5 receptor (Homo sapiens, UniProt P51681). The assay is described as follows: Calcium flux aequorin-based assay (agonist response). On the set-up: expressed in transfected cells; host or cells: Chinese hamster ovary cells coexpressing apoaequorin and Gα16. To be noted: for EC50: Chinese hamster ovary cells expressing the CCR5 receptor, apoaequorin and Gα16, read-out: Aequorin/Ca++ assay EC50. The format is cell-based. The protocol: The aequorin assay uses the responsiveness of aequorin to intracellular calcium release induced by the activation of G Protein Coupled Receptors (Stables et al., 1997, Anal. Biochem. 252:115-126; Detheux et al., 2000, J. Exp. Med., 192 1501-1508). Briefly, Chinese hamster ovary cells expressing the CCR5 receptor are transfected to coexpress apoaequorin and Gα16. Cells are incubated with 5 μM Coelenterazine H (Promega) overnight at room temperature, and resuspended at a concentration of 0.1×10^6 cells/ml. Cells are then mixed with test agonist compounds and light emission by the aequorin is recorded with a luminometer (PDSS 6000-Hamamatsu) for 30 sec. Results are expressed as Relative Light Units (RLU). Controls include cells not expressing CCR5 in order to exclude possible non-specific effects of the test compound.
An agonist response is defined as an increase of light emission by aequorin corresponding to 10% or more of the light emitted by a reference sample of cells expressing CCR5 and treated with a the reference agonist ligand MIP-1β. The results of the tested compounds are reported as the concentration of compound required to reach 50% (EC50) of the maximum level of light emission induced by these compounds.

Assay [2] deals with T1, CCR5 receptor. The assay is described as follows: 125I-MIP-1β binding competition assay. Also noted: expressed in transfected cells; host or cells: Chinese hamster ovary recombinant cells (membranes). As for the experimental part:
The ability of the compounds of the invention to inhibit the binding of […] was assessed by an in vitro radioligand binding assay. Membranes were prepared from Chinese hamster ovary recombinant cells which express the human CCR5 receptor. The membranes were incubated with 0.05 nM ^125I-MIP-1β in a HEPES 25 mM/CaCl2 5 mM/MgCl2 1 mM buffer and various concentrations of the compounds of the invention. The amount of iodinated MIP-1β bound to the receptor was determined after filtration by the quantification of membrane associated radioactivity using the TopCount-NXT reader (Packard). Competition curves were obtained for compounds of the invention and the concentration of compound which displaced 50% of bound radioligand (IC50) was calculated

The subject of assay [3] is recombinant and non-replicative HIV virus coding for the firefly luciferase. The assay is described as follows: Inhibitory effect on HIV infection to MAGI-CCR5 cells (HIV-luciferase assay). To be noted: 10 μM of the compound; MAGI R5 cells (footnote b). The format is cell-based.
For assay [4] the test system is unchanged. The description is as above. It counts as cell-based. As for the experimental part:
The inhibitory activity of the compounds of the invention on HIV infection is measured on the human MAGI R5 recombinant cell line coexpressing the human CCR5 receptor and CD4 at their extracellular membrane. MAGI R5 cells are plated in black view plates at 10,000 cells/well and incubated with the appropriate concentrations of the compounds of the invention during 1 hour. This is followed by a 24 hours infection period with the recombinant and non-replicative HIV virus coding for the firefly luciferase (Bona et al., 2006, Antimicrob. Agents Chemother. 50: 3407-3417). The inhibitory effect of the tested compound on virus entry in MAGI R5 cells is measured by a reduction of luciferase signal (TopCount-NXT reader (Packard) and detection luciferase kit: Steadylite HTS assay kit (Perkin Elmer)) in the presence of the compound of the invention relative to the maximum signal obtained from cells infected with the virus without any added compound. The results of the tested compounds are reported as the concentration of compound required to inhibit 50% (IC50) of the maximum luciferase signal.

Where [5] appears, read: membranes of CHO cells expressing human CCR5, 0.05 nM 125I-MIP-1β, read-out: 125I-MIP-1β binding assay IC50.
[6] abbreviates: Human immunodeficiency virus 1, MAGI-CCR5, read-out: HIV-luciferase assay IC50.

Like-named read-outs stand apart in the source and are kept apart here.

T1 sequence (P51681 whole entry): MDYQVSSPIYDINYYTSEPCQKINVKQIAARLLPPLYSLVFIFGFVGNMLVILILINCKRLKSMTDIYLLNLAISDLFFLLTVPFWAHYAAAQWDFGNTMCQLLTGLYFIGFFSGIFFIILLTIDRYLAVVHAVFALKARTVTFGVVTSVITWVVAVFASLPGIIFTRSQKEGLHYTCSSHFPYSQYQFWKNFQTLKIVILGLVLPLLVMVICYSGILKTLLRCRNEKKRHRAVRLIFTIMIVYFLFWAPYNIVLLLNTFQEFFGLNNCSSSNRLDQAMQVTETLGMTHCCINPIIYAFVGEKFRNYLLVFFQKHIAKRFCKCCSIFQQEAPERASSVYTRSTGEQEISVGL

The IC50 is the concentration at which inhibition is half-maximal. As for `COc1ccc(CNC(=O)CC2CCN(CCN(c3ccccc3)c3ccccc3)CC2)cc1` [Compound 16], in assay [1], the EC50 came to 764 nM. Also, in assay [2] (setting [5]), the IC50 amounted to 143 nM. The “level of inhibition of luciferase activity compared to the inhibition induced by Rantes at 100 nM” value in assay [3] was 79.6%^b.
`O=C(CC1CCN(CCN(c2ccccc2)c2ccccc2)CC1)NCc1ccc(Cl)cc1` [Compound 15]: the IC50 in assay [4] (setting [6]) came to 1440 nM; in assay [2] (setting [5]), 106 nM. Moreover, in assay [1], the EC50 amounted to 4410 nM.
As to `COc1ccc(NC(=O)CC2CCN(CC[C@H](NC(=O)C3CCC(F)(F)CC3)c3ccccc3)CC2)cc1` [Compound 69], the IC50 in assay [4] (setting [6]) came out at 2.7 nM. For the same molecule, in assay [1], the EC50 came to 36.4 nM.
On to `C[C@H](CN(c1ccccc1)S(=O)(=O)Cc1ccccc1)N1CCC(CC(=O)Nc2ccc(F)cc2F)CC1` [Compound 98], for which the IC50 came to 3.6 nM in assay [4] (setting [6]) and 0.4 nM in assay [2] (setting [5]). In assay [1], the EC50 stood at 60.5 nM.
Consider `O=C(CC1CCN(CCN(c2ccccc2)c2ccccc2)CC1)NCc1ccccc1` [Compound 50], for which the half-inhibitory concentration (IC50) in assay [4] (Human immunodeficiency virus 1, MAGI, read-out: IC50 (HIV infection of MAGI R5 cells)) worked out at 1600 nM; in assay [4] (setting [6]) it was 1600 nM; in assay [2] (setting [5]), 436 nM. For the same molecule, the “level of calcium/aequorin response compared to the calcium/aequorin response of MIP-1β at 100 nM” value in assay [1] (10 μM of the compound, activity too low for accurate EC50 calculation (footnote a)) is given as “+9.5%^a”.
Consider `Cc1cc(NC(=O)CC2CCN([C@H](C)CN(c3ccccc3)S(=O)(=O)CC3CCC(F)(F)CC3)CC2)[nH]n1` [Compound 55], for which the IC50 in assay [2] (range over the group, read-out: IC50 (125I-MIP-1β binding), range stated in text for the listed compounds) was 13.3 to 436 nM.
Turning to `Cc1ccc(NC(=O)CC2CCN(CCN(c3ccccc3)c3ccccc3)CC2)cc1` [Compound 8], the IC50 is 2160 nM in assay [4] (setting [6]) and 13.3 nM in assay [2] (setting [5]). In addition, the EC50 in assay [1] came to 425 nM.
The like results for `O=C(CC1CCN(CCN(c2ccccc2)c2ccccc2)CC1)Nc1ccc(F)cc1` [Compound 4] were, in that order, 2470 nM, 70.8 nM and 703 nM.
`O=C(CC1CCN(CCN(c2ccccc2)c2ccccc2)CC1)NC1CCCCC1` [Compound 17]: the EC50 in assay [1] was found to be 438 nM. In addition, the IC50 in assay [2] (setting [5]) is 134 nM. Besides, the “level of inhibition of luciferase activity compared to the inhibition induced by Rantes at 100 nM” value in assay [3] was found to be 55.8%^b.
`O=C(CC1CCN(CCN(c2ccccc2)c2ccccc2)CC1)Nc1ccc(Cl)cc1` [Compound 6]: the results for the IC50 in assay [4] (setting [6]) and in assay [2] (setting [5]) were 2050 nM and 116 nM, respectively. Also, in assay [1], the EC50 is 1760 nM.
On to `CCCCc1ccc(NC(=O)CC2CCN(CCN(c3ccccc3)c3ccccc3)CC2)cc1` [Compound 27], for which the EC50 in assay [1] is 2330 nM. Besides, in assay [2] (setting [5]), the IC50 worked out at 167 nM. The “level of inhibition of luciferase activity compared to the inhibition induced by Rantes at 100 nM” value in assay [3] stood at 31.5%^b.
For the molecule `COc1ccc(NC(=O)CC2CCN([C@H](C)CN(c3ccccc3)S(=O)(=O)Cc3ccccc3)CC2)cc1` [Compound 96], the results for the IC50 in assay [4] (setting [6]) and in assay [2] (setting [5]) were 3.9 nM and 0.4 nM, respectively. Also, the EC50 in assay [1] amounted to 70.6 nM.

Source of the values: patent US20090048291A1, “Novel Piperidine-4-Acetic Acid Derivatives and Their Use” (Euroscreen S.A., priority 2007, published 2009).
